Source: US9334256B2, “Agents and methods for treating ischemic and other diseases” (NoNO INC., priority 2011, dated 2016)
“Also recorded” adds a separate entry of the source.

Legend:
neurons = assay: Sublethal neuronal stretch injury model, survival by PI fluorescence; format: cell-based; settings: applied 1 hour after stretch injury, PI fluorescence 24 hours after; FIG. 3
Procedure: Likewise, TRPM7 inhibitors are also expected to provide neuroprotection to other types of brain injuries. […] This model is described in Arundine et al, (J. Neurosci, 2004:8106-23). TRPM7 inhibitors such as M21 were applied 1 hour after stretch injury and cells were assessed for survival by PI fluorescence 24 hours after the injury. […] Thus, this assay can be predictive of in vivo efficacy.

[1] = tested on: rats subjected to lateral FPI; assay: Distance traveled and activity post FPI; format: in vivo, rat; settings: FIG. 4B
Text: (§1) Thus, M21 and TRPM7 inhibitors are effective treatments to reduce the damaging effects of neurotrauma, including concussions.

[2] = tested on: rats subjected to lateral FPI; assay: Rotarod performance after lateral FPI; format: in vivo, rat; settings: FIG. 4A
Text: as §1

TRPM7 ion channel = target: T1, TRPM7 ion channel (Mus musculus, UniProt Q923J1); assay: Whole-cell patch clamp of TRPM7 currents in HEK293 cells; format: cell-based; settings: value shown = concentration at which the compound significantly inhibits the ion channel
T1 construct: expressed in transfected cells; host or cells: TRPM7-tet-on HEK293 cells
Procedure: To further understand the structure function relationships between the TRPM7 inhibitors identified in the TRPM7-dependent HEK death assay, the activity of a subset of these inhibitors described herein were tested for their ability to inhibit TRPM7 currents in cell systems. Whole-cell patch clamp recordings were used essentially as described to test the TRPM7 inhibitors in HEK293 cells, H9c2 cardiomyocytes and cultured neurons. […] Those that provide >10% inhibition of TRPM7 channel activity in the HEK293 cell system were labeled with the concentration tested (generally 5 uM). Thus, the compounds in this table marked with such a value are able to block the activity gof the TRPM7 ion channel. FIGS. 2A-C provide an example of this for the TRPM7 inhibitor 399 (Structure 9). […] Numbers in brackets indicate the number of independent tests, and the bars represent the SEM.
Whole-cell currents were recorded using an Axopatch 1D or MultiClamp 700B amplifier and were digitized at 10 kHz and low-pass filtered at 2 kHz, at room temperature. pClamp10 software was used for data acquisition and analysis. Patch electrodes were pulled from Borosilicate glass and fire polished to a resistance of 2-4 MΩ. All drugs were administrated directly to cell bodies under recording through the fast exchange perfusion system.
The intracellular solution (ICS) contains (mM) 145 Cs-methanesulfonate, 8 NaCl, l MgCl2, 4.1 CaCl2, 10 EGTA, and 10 HEPES, 5 ATP, pH at 7.4, with 300-305 mOsm. The extracellular solution (ECS) contains (mM) 140 NaCl, 5 KCl, 2 CaCl2, 20 HEPES, and 10 glucose, pH at 7.4 and with 315-320 mOsm.
Voltage stimuli lasting 250 ms were delivered at 5-s intervals with voltage ramps ranging from −100 to +100 mV. The current values at −80 mV and +80 mV on I-V curve represent the measures of inward and outward current respectively.
Table X and FIGS. 7-51 show screening data for several additional compounds that are variants of M5, M6 or M21. The synthesis of compounds of Table X and FIGS. 7-51 is shown in Appendices A-C. The compounds shown in FIGS. 7-51 can be related to the appropriate row of Table X by the compound number shown in the figures and in the first column of Table X. The compounds in Table X other than M5, M6 and M21 themselves, are believed to be novel. The Table provides a number identifying the compound, its structurer, molecular weight and its cluster (i.e., whether the compound resembles M5, M6 or M21). The three columns relations to PI uptake describe the results of screening the compounds in the type of assay from Example 1. […] The last two columns show an effect on proliferation of Weri retinoblastoma or HeLa cervical cancer cells. Inhibition of proliferation is a measure of anti-neoplastic activity. […] If no data is shown, no test was performed.

T1 sequence (Q923J1 whole entry): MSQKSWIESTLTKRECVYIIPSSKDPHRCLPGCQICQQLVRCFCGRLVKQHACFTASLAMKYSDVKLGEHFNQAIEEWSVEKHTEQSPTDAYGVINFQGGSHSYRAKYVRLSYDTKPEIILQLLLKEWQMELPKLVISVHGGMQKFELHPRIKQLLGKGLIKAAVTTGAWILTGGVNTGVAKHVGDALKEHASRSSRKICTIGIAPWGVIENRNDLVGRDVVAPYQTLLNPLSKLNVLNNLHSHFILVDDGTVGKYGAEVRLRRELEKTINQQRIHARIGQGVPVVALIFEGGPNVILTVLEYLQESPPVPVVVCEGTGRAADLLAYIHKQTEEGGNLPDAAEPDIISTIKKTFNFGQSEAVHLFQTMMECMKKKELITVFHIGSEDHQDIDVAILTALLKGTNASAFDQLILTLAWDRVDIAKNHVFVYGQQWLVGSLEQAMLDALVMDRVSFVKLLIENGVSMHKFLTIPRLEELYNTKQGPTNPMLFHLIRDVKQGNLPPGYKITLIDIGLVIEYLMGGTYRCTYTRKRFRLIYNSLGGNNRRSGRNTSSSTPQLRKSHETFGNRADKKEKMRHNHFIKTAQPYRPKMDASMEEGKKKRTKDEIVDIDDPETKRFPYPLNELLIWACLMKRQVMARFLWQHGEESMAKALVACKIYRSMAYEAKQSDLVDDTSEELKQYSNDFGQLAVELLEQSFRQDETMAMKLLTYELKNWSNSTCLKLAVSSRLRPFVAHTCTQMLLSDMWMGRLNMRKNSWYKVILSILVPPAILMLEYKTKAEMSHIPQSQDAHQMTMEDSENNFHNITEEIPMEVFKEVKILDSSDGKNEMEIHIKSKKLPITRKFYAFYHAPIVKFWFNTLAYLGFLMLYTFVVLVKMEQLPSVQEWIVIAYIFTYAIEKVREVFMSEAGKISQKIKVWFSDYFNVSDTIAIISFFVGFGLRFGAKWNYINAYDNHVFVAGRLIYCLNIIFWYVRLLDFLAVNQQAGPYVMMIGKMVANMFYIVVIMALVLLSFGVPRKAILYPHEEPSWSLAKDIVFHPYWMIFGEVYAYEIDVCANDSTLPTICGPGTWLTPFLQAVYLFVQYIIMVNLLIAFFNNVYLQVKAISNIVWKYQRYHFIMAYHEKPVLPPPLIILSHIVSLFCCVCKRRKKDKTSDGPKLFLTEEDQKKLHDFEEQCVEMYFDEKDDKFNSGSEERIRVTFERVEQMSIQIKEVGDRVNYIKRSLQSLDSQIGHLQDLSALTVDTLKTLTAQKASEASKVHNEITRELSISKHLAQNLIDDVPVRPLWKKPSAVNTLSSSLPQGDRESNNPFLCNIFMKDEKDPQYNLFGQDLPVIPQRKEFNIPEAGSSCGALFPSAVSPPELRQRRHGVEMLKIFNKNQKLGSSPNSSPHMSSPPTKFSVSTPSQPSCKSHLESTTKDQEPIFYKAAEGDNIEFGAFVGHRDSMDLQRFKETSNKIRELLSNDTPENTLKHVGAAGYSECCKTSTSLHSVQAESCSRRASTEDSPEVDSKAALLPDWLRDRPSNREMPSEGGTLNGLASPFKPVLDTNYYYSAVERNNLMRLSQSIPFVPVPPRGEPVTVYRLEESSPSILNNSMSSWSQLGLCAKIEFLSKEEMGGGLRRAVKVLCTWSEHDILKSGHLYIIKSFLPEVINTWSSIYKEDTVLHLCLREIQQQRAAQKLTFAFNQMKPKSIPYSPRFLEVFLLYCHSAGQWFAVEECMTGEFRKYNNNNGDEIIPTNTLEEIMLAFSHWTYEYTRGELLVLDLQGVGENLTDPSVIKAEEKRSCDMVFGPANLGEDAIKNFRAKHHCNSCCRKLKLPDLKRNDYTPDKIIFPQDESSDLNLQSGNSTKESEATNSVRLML

**Q.** Which results are given for `Cc1c(Cc2ccc(Cl)c(Cl)c2)c(=O)oc2cc(O)ccc12` [Compound M21]?
**A.** protection from cell death after stretch injury (neurons): can protect neurons from cell death due to stretch injuries; also recorded: increased protection from cell death; distance traveled and activity post FPI [1]: comparable to uninjured animals; time able to maintain balance on the Rotarod relative to injured animals treated with vehicle alone [2]: twice the time; Rotarod performance (mean latency) ([2]; first day post injury, compared to FPI+Vehicle): near wild type levels of performance; TRPM7 current (TRPM7 ion channel): 5 μM (Those that provide >10% inhibition of TRPM7 channel activity in the HEK293 cell system were labeled with the concentration tested (generally 5 uM))
